Data taken from patent US5464617A, “β-lactam compounds” (Hoffmann-La Roche Inc., priority 1994, dated 1995).
In brackets after ≈: the same amount, converted by molar mass. Counter-ions that a name gives are not always drawn.

Tests used:
[1] = test system: Citrobacter freundii 1982; assay: MIC in vitro of a 1:4 combination of ceftriaxone with a compound of formula I (Test D); type: cell-based; conditions: for MIC C. freundii 1982 (D): test D; for MIC C. freundii 1982: Table 2
Procedure: The minimum inhibitory concentration in vitro ([…]) of a 1:4 combination of ceftriaxone with a compound of formula I against Citrobacter freundii 1982 was measured and compiled in Table 2 hereinafter.

[2] = test system: E. coli 1346; assay: Antibacterial activity of the products per se, serial dilution method in liquid medium (Test E); type: cell-based; conditions: product per se; for MIC E. coli 1346 (E): test E; for MIC E. coli 1346: Table 3, liquid medium
From the text: The antibacterial activity of the products per se is illustrated on the basis of Table 3 hereinafter, the minimum inhibitory concentration […] in vitro against E. coli 1346 being determined using the serial dilution method in liquid medium: […]

[3] = Table 4, 1:4 combination of ceftriaxone with the compound
[4] = 1:4 combination of ceftriaxone with the compound

Row | SMILES | MIC C. freundii 1982 (D) [1, 3] [µg/mL] | MIC E. coli 1346 (E) ([2]; Table 4) [µg/mL] | further results
1 | O=C([O-])C1=C(C[n+]2ccccc2)C[C@@H]2CN[C@@H]3C(=O)N1[C@H]23 [Example 22, (1aS,3aR,6bR)-1-Oxo-5-(pyridin-1-yliomethyl)-1a,2,3,3a,4,6b-hexahydro-1H-2,6a-diazacyclobut[cd]indene-6-carboxylate trifluoroacetate] |  |  | MIC C. freundii 1982 [1, 4]: 4 µg/mL; MIC E. coli 1346 [2]: 4 µg/mL
2 | O=C(O)C1=C(CSc2ccncc2)S[C@@H]2CN[C@@H]3C(=O)N1[C@@H]32 [40(f), (1aS,3aR,6bS)-1-Oxo-5-(pyridin-4-ylsulphanylmethyl)-4-thia-1,1a,2,3,3a,6b-hexahydro-2,6a-diazacyclobut[cd]indene-6-carboxylic acid] | 2 | 32 (≈ 95.4 µM) | 
3 | COC(=O)CN1C[C@H]2CC(COC(N)=O)=C(C(=O)O)N3C(=O)[C@@H]1[C@@H]23 [59(b), (1aS,3aR,6bR)-5-Carbamoyloxymethyl-2-methoxycarbonylmethyl-1-oxo-1a,2,3,3a,4,6b-hexahydro-1H-2,6a-diazacyclobut[cd]indene-6-carboxylic acid sodium salt] | 0.5 | 2 | 
4 | Cn1nnnc1SCC1=C(C(=O)O)N2C(=O)[C@@H]3[C@H]2[C@@H](CN3C(=O)CSc2nnc(N)s2)S1 [42(c), (1aS,3aR,6bS)-2-(2-Amino-1,3,4-thiadiazol-5-ylsulphanylacetyl)-5-(1-methyl-1H-tetrazol-5-ylsulphanylmethyl)-1-oxo-4-thia-1,1a,2,3,3a,6b-hexahydro-2,6a-diazacyclobut[cd]indene-6-carboxylic acid sodium salt] | 0.2 | 16 | 
5 | Nc1nnc(SC2=C(C(=O)O)N3C(=O)[C@@H]4[C@H]3[C@H](C2)CN4C(=O)Nc2ccc(O)cc2)s1 [3(l), (1aS,3aR,6bR)-5-(5-Amino-1,3,4-thiadiazol-2-ylsulphanyl)-2-(4-hydroxyphenylcarbamoyl)-1-oxo-1a,2,3,3a,4,6b-hexahydro-1H-2,6a-diazacyclobut[cd]indene-6-carboxylic acid sodium salt] |  |  | MIC C. freundii 1982 [1, 4]: 0.5 µg/mL; MIC C. freundii 1982 (D) ([1]; Table 5, particularly preferred products, 1:4 combination with ceftriaxone): 0.5 µg/mL; MIC E. coli 1346 [2]: 8 µg/mL; MIC E. coli 1346 (E) ([2]; Table 5, particularly preferred products): 8 µg/mL
6 | CS(=O)(=O)OC1=C(C(=O)O)N2C(=O)[C@@H]3[C@H]2[C@H](C1)CN3C(=O)NCc1ccc(S(N)(=O)=O)cc1 [9(h), (1aS,3aR,6bR)-5-Methylsulphonyloxy-1-oxo-2-(4-sulphamoylbenzylcarbamoyl)-1a,2,3,3a,4,6b-hexahydro-1H-2,6a-diazacyclobut[cd]indene-6-carboxylic acid sodium salt] |  |  | MIC C. freundii 1982 [1, 4]: 0.5 µg/mL; MIC E. coli 1346 [2]: 32 µg/mL
7 | O=C(O)C1=C(CSc2nnnn2CC(=O)N2CCOCC2)S[C@@H]2CN[C@@H]3C(=O)N1[C@@H]32 [40(g), (1aS,3aR,6bS)-5-[1-(2-Morpholin-4-yl-2-oxo-ethyl)-1H-tetrazol-5-ylsulphanylmethyl]-1-oxo-4-thia-1,1a,2,3,3a,6b-hexahydro-2,6a-diazacyclobut[cd]indene-6-carboxylic acid] | 4 | > 32 | 
8 | Cn1nnnc1CSCC1=C(C(=O)O)N2C(=O)[C@H]3NC[C@@H](S1)[C@H]32 [Example 43, (1aS,3aR,6bS)-5-(1-Methyl-1H-tetrazol-5-ylmethylsulphanylmethyl)-1-oxo-4-thia-1,1a,2,3,3a,6 b-hexahydro-2,6a-diazacyclobut-[cd]indene-6-carboxylic acid sodium salt] | 4 | > 32 | 
9 | O=C(O)C1=C(CSc2ncccn2)C[C@@H]2CN[C@@H]3C(=O)N1[C@H]23 [Example 71, (1aS,3aR,6bR)-1-Oxo-5-(pyrimidin-2-ylsulphanylmethyl)-1a,2,3,3a,4,6b-hexahydro-1H-2,6a-diazacyclobut[cd]indene-6-carboxylic acid trifluoroacetate] | 2 | 8 | 
10 | CC(=O)OCC1=C(C(=O)O)N2C(=O)[C@@H]3[C@H]2[C@H](C1)CN3C(=O)NCC(=O)OCc1ccccc1 [25(b), (1aS,3aR,6bR)-5-Acetoxymethyl-2-benzyloxycarbonylmethylcarbamoyl-1-oxo-1a,2,3,3a,4,6b-hexahydro-1H-2,6a-diazacyclobut[cd]indene-6-carboxylic acid sodium salt] | 0.25 | 4 | 
11 | Cc1nnc(SCC2=C(C(=O)O)N3C(=O)[C@H]4NC[C@@H](S2)[C@H]43)s1 [40(h), (1aS,3aR,6bS)-5-[5-Methyl-1,3,4-thiadiazol-2-ylsulphanylmethyl]-1-oxo-4-thia-1,1a,2,3,3a,6b-hexahydro-2,6a-diazacyclobut[cd]indene-6-carboxylic acid] | 0.5 | 8 (≈ 22.4 µM) | 
12 | Cc1nnc(SCC2=C(C(=O)O)N3C(=O)[C@H]4NC[C@@H](O2)[C@H]43)s1 [Example 29(a), (1aS,3aR,6bS)-5-(5-Methyl-1,3,4-thiadiazol-2-ylsulphanylmethyl)-1-oxo-1,1a,2,3,3a,6b-hexahydro-4-oxa-2,6a-diazacyclobut[cd]indene-6-carboxylic acid sodium salt] | 1 | 1 | 
13 | CC(=O)N1C[C@H]2CC(COC(=O)NCC(F)(F)F)=C(C(=O)O)N3C(=O)[C@@H]1[C@@H]23 [92(a), (1aS,3aR,6bR)-2-Acetyl-1-oxo-5-(2,2,2-trifluoroethylcarbamoyloxymethyl)-1a,2,3,3a,4,6b-hexahydro-1H-2,6a-diazacyclobut[cd]indene-6-carboxylic acid sodium salt] | 2 | 4 | 
14 | O=C(NC1CC1)OCC1=C(C(=O)O)N2C(=O)[C@@H]3[C@H]2[C@H](C1)CN3C(=O)C(F)(F)F [94(b), (1aS,3aR,6bR)-5-Cyclopropylcarbamoyloxymethyl-1-oxo-2-trifluoroacetyl-1a,2,3,3a,4,6b-hexahydro-1H-2,6 a-diazacyclobut[cd]indene-6-carboxylic acid sodium salt] | 1 | 2 | 

The next lines start with results.

Row | MIC C. freundii 1982 (D) [1, 3] [µg/mL] | MIC E. coli 1346 (E) ([2]; Table 4) [µg/mL] | SMILES | further results
15 | 0.5 | > 32 | Cc1nnc(SCC2=C(C(=O)O)N3C(=O)[C@@H]4[C@H]3[C@H](C2)CN4C(=O)Nc2ccc(O)cc2)s1 [Example 64, (1aS,3aR,6bR)-2-(4-Hydroxy-phenylcarbamoyl)-5-(5-methyl-1,3,4-thiadiazol-2-ylsulphanylmethyl)-1-oxo-1a,2,3,3a,4,6b-hexahydro-1H-2,6a-diazacyclobut[cd]indene-6-carboxylic acid sodium salt] | 
16 | 0.25 | 0.5 | Cn1nnnc1SCC1=C(C(=O)O)N2C(=O)[C@@H]3[C@H]2[C@H](C1)CN3C=O [Example 19(k), (1aS,3aR,6bR)-2-Formyl-5-(1-methyl-1H-tetrazol-5-ylsulphanylmethyl)-1-oxo-1a,2,3,3a,4,6b-hexahydro-1H-2,6a-diazacyclobut[cd]indene-6-carboxylic acid sodium salt] | 
17 | 2 | 4 | O=C(Nc1ccc(O)cc1)OCC1=C(C(=O)O)N2C(=O)[C@H]3NC[C@@H](C1)[C@H]32 [Example 89, (1aS,3aR,6bR)-5-(4-Hydroxy-phenylcarbamoyloxymethyl)-1-oxo-1a,2,3,3a,4,6b-hexahydro-1H-2,6a-diazacyclobut[cd]indene-6-carboxylic acid trifluoroacetate] | 
18 | 1 | 0.5 | CC(=O)N1C[C@H]2CC(COC(=O)Nc3ccc(O)cc3)=C(C(=O)O)N3C(=O)[C@@H]1[C@@H]23 [90(a), (1aS,3aR,6bR)-2-Acetyl-5-(4-hydroxy-phenylcarbamoyloxymethyl)-1-oxo-1a,2,3,3a,4,6b-hexahydro-1H-2,6a-diazacyclobut[cd]indene-6-carboxylic acid sodium salt] | 
19 | 8 | 0.5 | CC(=O)N1C[C@H]2CC(CSc3nc(-c4cccnc4)cs3)=C(C(=O)O)N3C(=O)[C@@H]1[C@@H]23 [67(a), (1aS,3aR,6bR)-2-Acetyl-1-oxo-5-(4-pyridin-3-yl-thiazol-2-ylsulphanylmethyl)-1a,2,3,3a,4,6b-hexahydro-1H-2,6a-diazacyclobut[cd]indene-6-carboxylic acid sodium salt] | 
20 | 1 | 2 | NC(=O)OCC1=C(C(=O)O)N2C(=O)[C@@H]3[C@H]2[C@H](C1)CN3CC(=O)Nc1ccc(O)cc1 [Example 59(a), (1aS,3aR,6bR)-5-Carbamoyloxymethyl-2-(4-hydroxyphenylcarbamoylmethyl)-1-oxo-I a,2,3,3a,4,6b-hexahydro-1H-2,6a-diazacyclobut[cd]indene-6-carboxylic acid sodium salt] | 
21 | 2 | 8 | Cc1nnc(SCC2=C(C(=O)O)N3C(=O)[C@H]4NC[C@@H](C2)[C@H]43)s1 [Example 63, (1aS,3aR,6bR)-5-(5-Methyl-1,3,4-thiadiazol-2-ylsulphanylmethyl)-1-oxo-1a,2,3,3a,4,6b-hexahydro-1H-2,6a-diazacyclobut[cd]indene-6-carboxylic acid trifluoroacetate] | 
22 | 0.5 | 8 | Cn1nnnc1SCC1=C(C(=O)O)N2C(=O)[C@@H]3[C@H]2[C@@H](CN3C(=O)Nc2ccc(C(N)=O)cc2)O1 [31(i), (1aS,3aR,6bS)-2-(4-Carbamoyl-phenylcarbamoyl)-5-(1-methyl-1H-tetrazol-5-ylsulphanylmethyl)-1-oxo-1,1a,2,3,3a,6b-hexahydro-4-oxa-2,6a-diazacyclobut[cd]indene-6-carboxylic acid sodium salt] | 
